Measured values as given in patent US20080227655A1, “Assessment of effect of an agent on a human biological condition using rodent gene expression panels” (priority 2006, published 2008).
“And” between values parts separate entries of the source, which are not always exact repeats. Equal entries are not always repeated.

Test system: custom murine 40-gene Precision Profile for Rheumatoid Arthritis, whole blood
Test: Collagen Induced Arthritis (CIA) model, whole blood gene expression by QPCR, vehicle or dexamethasone treatment
Format: in vivo, male DBA/1 mice
Protocol: Whole blood gene expression changes were evaluated in vehicle control and drug-treated murine subjects across two murine models of arthritis according to the following arthritis models:
KRN Transgenic Mouse (K/B×N): K/B×N serum from transgenic mouse used to induce arthritis in female BALB/c mice (n=54). Collagen Induced Arthritis (CIA): Bovine type II collagen used to induce arthritis in male DBA/1 mice (n=54).
In addition, naïve, untreated animal groups at baseline and terminal day were included to control for potential age-related changes in gene expression over the extended study periods. Animal groups, time-points, and treatment schedules are summarized in Tables 20A and 20B, respectively.
Whole blood samples from animals were collected by retro-orbital bleed at selected time-points in accordance with the arthritis study schemas described in […], and transferred into sample collection tubes containing a 1.5× lysis solution and RPMI. Samples were processed into total RNA and cDNA. […] It was anticipated from these murine models would provide a better understanding of the relevant molecular response of arthritis induction and their potential correlation to the human disease condition.
Normal murine subject reference values (represented as normalized Ct or ΔCt values) were established for male DBA/1 mice (n=6 for the CIA study arm) and female BALB/c mice (n=6 for the KRN study arm). In both arms of the study, gene expression response of normal (naïve, non-immunized and untreated) murine subjects were evaluated in groups of 6 each at day 0 and day 60 for the CIA study arm, and at day 0 and day 21 for the KRN study arm (see Tables 20A and 20B).
Gene expression responses for this arthritis-induced murine model were evaluated for untreated mice at day 24 and vehicle-treated mice at days 33, 42, and 60 to characterize disease progression.

[1] = CIA Day 42 Treated, group Average
[2] = CIA Day 42 Treated, group Average, whole blood
[3] = CIA Day 42 Treated, individual mice
[4] = CIA Day 42 Treated, individual mice, whole blood
[5] = CIA Day 60 Treated, group Average
[6] = CIA Day 60 Treated, group Average, whole blood
[7] = CIA Day 60 Treated, individual mice
[8] = CIA Day 60 Treated, individual mice, whole blood

Compound: C[C@@H]1C[C@H]2[C@@H]3CCC4=CC(=O)C=C[C@]4(C)[C@@]3(F)[C@@H](O)C[C@]2(C)[C@@]1(O)C(=O)CO [Dexamethasone]
- CD19_M Normalized CT Value (Delta CT), Average [1]: 17.41
- CD32_M Normalized CT Value (Delta CT), Average [1]: 19.18
- CD86_M Normalized CT Value (Delta CT), Average [1]: 22.86
- CSPG2_M Normalized CT Value (Delta CT), Average [1]: 18.40
- F3_M Normalized CT Value (Delta CT), Average [1]: 24.19
- HMOX1—M Normalized CT Value (Delta CT), Average [1]: 17.42
- HSPA1A—M Normalized CT Value (Delta CT), Average [1]: 22.06
- ICAM1—M Normalized CT Value (Delta CT), Average [1]: 19.40
- IFI16_M Normalized CT Value (Delta CT), Average [1]: 18.56
- IL1A_M Normalized CT Value (Delta CT), Average [1]: 24.26
- IL1B_M Normalized CT Value (Delta CT), Average [1]: 14.10
- IL10_M Normalized CT Value (Delta CT), Average [1]: 25.70
- Normalized CT (Delta CT) IL1RAP_M [2]: 18.00
- Normalized CT (Delta CT) IL1RN—M [2]: 17.54
- Normalized CT (Delta CT) IL6_M [2]: 24.59
- Normalized CT (Delta CT) JUN_M [2]: 20.13
- Normalized CT (Delta CT) MEF2C—M [2]: 19.65
- Normalized CT (Delta CT) NFKB1—M [2]: 17.40
- Normalized CT (Delta CT) PADI4—M [2]: 17.97
- Normalized CT (Delta CT) PLA2G7—M [2]: 14.89
- ABCA1_M Normalized CT Value (Delta CT) [3]: 19.25 and 19.03 and 20.65 and 19.18 and 18.65 and 19.31
- APAF1_M Normalized CT Value (Delta CT) [3]: 20.34 and 19.23 and 20.02 and 18.89 and 19.10 and 20.01
- ARG2_M Normalized CT Value (Delta CT) [3]: 18.59 and 17.70 and 18.13 and 17.87 and 17.07 and 18.04
- CASP1_M Normalized CT Value (Delta CT) [3]: 19.07 and 17.95 and 20.08 and 18.16 and 18.00 and 18.03
- CASP3_M Normalized CT Value (Delta CT) [3]: 18.26 and 18.13 and 18.40 and 18.45 and 17.48 and 17.70
- CCR3_M Normalized CT Value (Delta CT) [3]: 19.92 and 18.94 and 19.77 and 19.05 and 19.94
- CD8A_M Normalized CT Value (Delta CT) [3]: 19.05 and 19.19 and 19.47 (2×) and 19.54 and 21.24
- CD14_M Normalized CT Value (Delta CT) [3]: 18.22 and 17.59 and 18.17 and 17.46 and 16.46 and 17.49
- CD19_M Normalized CT Value (Delta CT) [3]: 17.83 and 18.59 and 17.22
- CD32_M Normalized CT Value (Delta CT) [3]: 19.54 and 18.75 and 20.05 and 19.32 and 18.31 and 19.12
- CD86_M Normalized CT Value (Delta CT) [3]: 22.76 and 21.99 and 24.40 and 22.29 and 22.95 and 22.75
- CSPG2_M Normalized CT Value (Delta CT) [3]: 17.53 and 18.70 and 18.64 and 18.36 and 19.59 and 17.59
- F3_M Normalized CT Value (Delta CT) [3]: 21.92 and 24.08 and 25.50 and 24.56 and 23.94 and 25.11
- HMOX1—M Normalized CT Value (Delta CT) [3]: 15.87 and 17.25 and 18.49 and 17.66 and 17.84 and 17.40
- HSPA1A—M Normalized CT Value (Delta CT) [3]: 21.34 and 22.12 and 22.63 and 20.82 and 23.83 and 21.63
- ICAM1—M Normalized CT Value (Delta CT) [3]: 18.58 and 19.08 and 19.89 and 19.37 and 20.27 and 19.24
- IFI16_M Normalized CT Value (Delta CT) [3]: 17.87 and 17.97 and 18.60 and 18.06 and 20.80 and 18.04
- IL1A_M Normalized CT Value (Delta CT) [3]: 24.26
- IL1B_M Normalized CT Value (Delta CT) [3]: 13.49 and 14.12 and 14.22 and 14.25 and 14.38 and 14.15
- IL10_M Normalized CT Value (Delta CT) [3]: 25.44 (2×) and 25.71 and 25.64 and 25.84 and 26.13
- Normalized CT (Delta CT) IL1RAP_M [4]: 17.46 and 17.94 and 18.31 and 18.38 and 17.99 and 17.91
- Normalized CT (Delta CT) IL1RN—M [4]: 16.89 and 17.57 and 17.94 and 17.76 and 17.56 and 17.53
- Normalized CT (Delta CT) IL6_M [4]: 24.11 and 25.01 and 23.38 and 25.34 and 25.09
- Normalized CT (Delta CT) JUN_M [4]: 19.54 and 19.51 and 20.43 and 19.81 and 21.67 and 19.83
- Normalized CT (Delta CT) MEF2C—M [4]: 19.72 and 19.12 and 19.89 and 19.47 and 20.04 and 19.64
- Normalized CT (Delta CT) NFKB1—M [4]: 17.25 and 16.83 and 17.27 and 16.97 and 18.81 and 17.26
- Normalized CT (Delta CT) PADI4—M [4]: 17.57 and 18.02 and 17.98 (2×) and 18.35 and 17.91
- Normalized CT (Delta CT) PLA2G7—M [4]: 14.60 and 14.83 and 15.02 and 14.96 and 15.09 and 14.82
- ABCA1_M Normalized CT Value (Delta CT), Average [5]: 18.01
- APAF1_M Normalized CT Value (Delta CT), Average [5]: 18.94
- ARG2_M Normalized CT Value (Delta CT), Average [5]: 17.62
- CASP1_M Normalized CT Value (Delta CT), Average [5]: 18.09
- CASP3_M Normalized CT Value (Delta CT), Average [5]: 17.44
- CCR3_M Normalized CT Value (Delta CT), Average [5]: 20.02
- CD14_M Normalized CT Value (Delta CT), Average [5]: 17.08
- CD32_M Normalized CT Value (Delta CT), Average [5]: 18.46
- CD86_M Normalized CT Value (Delta CT), Average [5]: 22.22
- Normalized CT (Delta CT) IL1RAP_M [6]: 18.09
- Normalized CT (Delta CT) IL1RN—M [6]: 17.39
- Normalized CT (Delta CT) IL6_M [6]: 24.58
- Normalized CT (Delta CT) JUN_M [6]: 19.44
- Normalized CT (Delta CT) MEF2C—M [6]: 19.42
- Normalized CT (Delta CT) NFKB1—M [6]: 16.65
- Normalized CT (Delta CT) PADI4—M [6]: 18.36
- Normalized CT (Delta CT) PLA2G7—M [6]: 14.66
- ABCA1_M Normalized CT Value (Delta CT) [7]: 18.15 and 17.43 and 18.02 and 18.03 and 18.50 and 17.95
- APAF1_M Normalized CT Value (Delta CT) [7]: 18.90 and 18.40 and 19.28 and 18.97 and 19.36 and 18.75
- ARG2_M Normalized CT Value (Delta CT) [7]: 17.69 and 17.21 and 17.86 and 17.73 and 18.48 and 16.78
- CASP1_M Normalized CT Value (Delta CT) [7]: 17.78 and 17.53 and 18.19 and 18.75 and 18.66 and 17.61
- CASP3_M Normalized CT Value (Delta CT) [7]: 17.72 and 17.06 and 17.22 and 17.97 and 17.46 and 17.18
- CCR3_M Normalized CT Value (Delta CT) [7]: 20.33 and 18.57 and 20.17 and 20.39 and 21.29 and 19.38
- CD14_M Normalized CT Value (Delta CT) [7]: 17.31 and 16.84 (2×) and 17.24 and 17.32 and 16.92
- CD32_M Normalized CT Value (Delta CT) [7]: 18.41 and 17.86 and 18.35 and 18.90 and 18.54 and 18.72
- CD86_M Normalized CT Value (Delta CT) [7]: 22.26 and 21.38 and 22.48 and 22.41 and 22.40 and 22.37
- Normalized CT (Delta CT) IL1RAP_M [8]: 18.11 and 18.37 and 18.06 and 18.23 and 18.26 and 17.51
- Normalized CT (Delta CT) IL1RN—M [8]: 17.45 and 17.37 and 17.66 and 17.72 and 17.62 and 16.51
- Normalized CT (Delta CT) IL6_M [8]: 25.14 and 24.12 and 24.79 and 25.54 and 25.20 and 22.67
- Normalized CT (Delta CT) JUN_M [8]: 19.63 and 19.39 and 19.44 (2×) and 19.07 and 19.67
- Normalized CT (Delta CT) MEF2C—M [8]: 19.42 and 19.06 and 19.35 and 19.73 and 19.55 and 19.41
- Normalized CT (Delta CT) NFKB1—M [8]: 16.72 and 16.41 and 16.30 and 16.95 and 16.80 and 16.73
- Normalized CT (Delta CT) PADI4—M [8]: 18.90 and 18.59 and 18.29 and 18.10 and 18.41 and 17.84
- Normalized CT (Delta CT) PLA2G7—M [8]: 14.78 and 14.34 and 14.76 and 14.77 and 14.96 and 14.35
- Normalized CT (Delta CT), column 9, gene sub-head of this block not shown [8]: 24.31
